# Earlier results, collected in US10300017B2, “Method and composition for treating cystitis” (Nanologix Research, Inc., priority 2012, dated 2019).
# Key:
# [1] = system: interstitial cystitis; settings: 20 patients heparin 40,000 units, 20 patients 100 mg Elmiron, 80 mg lidocaine, 3 cc sodium bicarb
# [2] = oral
fraction absorbed that reaches the circulation (administered orally) [%],fraction of the administered dose recovered as intact drug in urine (mean) (oral dose) [%],"mean of an oral dose excreted in the urine (oral dose, mostly as desulfated and depolymerized metabolites) [%]",Substance,"response to therapy (symptom relief), comparison of the two intravesical solutions [1]",systemic side effects [2]
6,0.14,6,pentosan polysulfate [Elmiron®],no significant difference between the two solutions,"hair loss, GI intolerance, headache, rash, sleep disturbance, and vertigo"
,,,heparin,no significant difference between the two solutions,
